According to patent US20250381206A1, “INVARIANT NATURAL KILLER T-CELL ACTIVATORS” (Deciduous Therapeutics, Inc., priority 2022, published 2025):

How the values were obtained:
[1] = test system: C57BL/6J mice; test: In vivo IFNγ activation and iNKT cell expansion in C57BL/6J mice; design: species or system mouse; details: 2 μg I.P.; for Naïve Mouse In Vivo IFNγ: average serum IFNγ by ELISA, twenty hours post-injection, eight weeks old C57BL/6J mice; for Naïve Mouse In Vivo CD3 + iNKT + cells (Fold increase over veh control): iNKT cells within splenocytes by flow cytometry, four days post-injection, C57BL/6J mice
Procedure: Any of the compounds provided herein may be used in this example, including the exemplary compounds of Tables 1 and 2. To determine the expansion induced by the compounds described herein, test compounds were injected into C57BL/6J mice. Serum IFNγ levels and the expansion of iNKT cells within splenocytes was measured 4 days post-IP injection.
Eight weeks old C57BL/6J mice were injected (I.P.) with 2 μg of test compounds. The test compounds were either dissolved in DMSO at a 5 mg/mL stock solution, or formulated into liposomes through thin-film rehydration, then extrusion through 200 nm filters. Liposome-based formulations were constructed using soy phosphatidylcholine, cholesterol, and test compound in a 2:1:0.15 ratio. Twenty hours post-injection, blood was collected from the tail to measure the level of serum IFNγ using an ELISA kit from Biolegend. Four days post-injection, the mice were sacrificed and the splenocytes were isolated. The percentage of iNKT cells within the spleens was measured using flow cytometry, selecting for live cells and mouse CD1d-α-GalCer tetramer+ cells.
In response to injection of several exemplary compounds, the average serum IFNγ collected and fold change of cells are shown in Table B4 below.

[2] = target: T1, human iTCR (Homo sapiens, UniProt P15813); test: In vitro activation of human iTCR through a Jurkat reporter cell line (JiNKT, GFP under NFKB promoter) co-cultured with compound-loaded BWSTIM cells; type: cell-based; details: percentage of JiNKT cells expressing high levels of GFP by flow cytometry; BWSTIM loaded 4 hours, co-cultured 18 to 24 hours
T1 sequence (P15813 1-335): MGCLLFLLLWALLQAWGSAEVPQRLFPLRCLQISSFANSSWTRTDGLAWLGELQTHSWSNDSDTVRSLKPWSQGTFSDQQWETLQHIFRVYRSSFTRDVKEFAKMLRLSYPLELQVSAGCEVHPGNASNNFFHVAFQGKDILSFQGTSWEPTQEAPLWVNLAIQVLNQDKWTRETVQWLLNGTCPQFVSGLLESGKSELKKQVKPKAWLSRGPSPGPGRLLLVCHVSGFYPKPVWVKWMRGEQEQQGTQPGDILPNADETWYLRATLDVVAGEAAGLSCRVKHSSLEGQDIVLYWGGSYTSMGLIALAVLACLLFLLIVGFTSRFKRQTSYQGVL
Source text: To determine the human iTCR activation potential induced by the compounds described herein, a Jurkat cell line (JiNKT) was transfected with the human iTCR, and GFP under the NFKB promoter (cell line licensed from the Medical University of Vienna). A BWS147 cell line (BWSTIM) was also transfected with CD80 and CD1d to act as the antigen-presenting cell.
Any of the compounds provided herein may be used in this example, including the exemplary compounds of Tables 1 and 2. Test compounds were dissolved in DMSO at a 5 mg/mL stock solution. BWSTIM cells were loaded with test compounds at varying concentrations for 4 hours at 37° C. at a concentration of 20k cells/well in 200 μL of media in a u-bottom 96 well dish. BWSTIM cells were washed 2× with media, then incubated with JiNKT cells at a concentration of 80k cells/well in a u-bottom 96 well dish. Cells were co-cultured for 18 to 24 hours. The percentage of cells expressing high levels of GFP was measured through flow cytometry (after gating out the mCD45+ BWSTIM cells).

`CCCCCCCCCCCCCCC[C@@H](O)[C@H](CO[C@H]1O[C@H](CO)[C@H](O)[C@H](O)[C@H]1O)NC(=O)CCCCCCCCCCCCCCCCCCCCCCCC12CC(F)(C1)C2` [Compound I-2, 24-(3-fluorobicyclo[1.1.1]pentan-1-yl)-N-((2S,3R)-3-hydroxy-1-(((2S,3R,4S,5R,6R)-3,4,5-trihydroxy-6-(hydroxymethyl)tetrahydro-2H-pyran-2-yl)oxy)octadecan-2-yl)tetracosanamide] was tested, and the “Naïve Mouse In Vivo IFNγ” value [1] was 8128 ± 1209 pg/mL, the “Naïve Mouse In Vivo CD3 + iNKT + cells (Fold increase over veh control)” value [1] was 2.21 ± 0.38 Fold increase over veh control and the EC50 [2] was 1.78 µM.
With `CCCCCCCCCCCCCC[C@@H](O)[C@@H](O)[C@H](CO[C@H]1O[C@H](COC(=O)CCc2ccccc2)[C@H](O)[C@H](O)[C@H]1O)NC(=O)CCCCCCCCCCCCCCCCCCCCCCCC12CC(F)(C1)C2` [Compound I-3, ((2R,3R,4S,5R,6S)-6-(((2S,3S,4R)-2-(24-(3-fluorobicyclo[1.1.1]pentan-1-yl)tetracosanamido)-3,4-dihydroxyoctadecyl)oxy)-3,4,5-trihydroxytetrahydro-2H-pyran-2-yl)methyl 3-phenylpropanoate] the “Naïve Mouse In Vivo IFNγ” value [1] was 8506 ± 790 pg/mL, the “Naïve Mouse In Vivo CD3 + iNKT + cells (Fold increase over veh control)” value [1] was 1.12 ± 0.19 Fold increase over veh control and the EC50 [2] was 0.908 µM.
`CCCCCCCCCCCCCCC[C@@H](O)[C@H](CC[C@H]1O[C@H](COC(=O)CCc2ccccc2)[C@H](O)[C@H](O)[C@H]1O)NC(=O)CCCCCCCCCCCCCCCCCCCCCCCC12CC(F)(C1)C2` [Compound I-4, ((2R,3R,4R,5R,6R)-6-((3S,4R)-3-(24-(3-fluorobicyclo[1.1.1]pentan-1-yl)tetracosanamido)-4-hydroxynonadecyl)-3,4,5-trihydroxytetrahydro-2H-pyran-2-yl)methyl 3-phenylpropanoate] was tested, and the “Naïve Mouse In Vivo IFNγ” value [1] was 28208 ± 4723 pg/mL, the “Naïve Mouse In Vivo CD3 + iNKT + cells (Fold increase over veh control)” value [1] was 4.09 ± 0.78 Fold increase over veh control and the EC50 [2] was 0.621 µM.
In the case of `CCCCCCCCCCCCCCC[C@@H](O)[C@H](CO[C@H]1O[C@H](COC(=O)CCc2ccccc2)[C@H](O)[C@H](O)[C@H]1O)NC(=O)CCCCCCCCCCCCCCCCCCCCCCCC1CCS(=O)(=O)CC1` [Compound I-6, ((2R,3R,4S,5R,6S)-6-(((2S,3R)-2-(24-(1,1-dioxidotetrahydro-2H-thiopyran-4-yl)tetracosanamido)-3-hydroxyoctadecyl)oxy)-3,4,5-trihydroxytetrahydro-2H-pyran-2-yl)methyl 3-phenylpropanoate], the “Naïve Mouse In Vivo IFNγ” value [1] is reported as 43930 ± 43396 pg/mL, the “Naïve Mouse In Vivo CD3 + iNKT + cells (Fold increase over veh control)” value [1] is reported as 1.89 ± 0.44 Fold increase over veh control and the EC50 [2] is reported as 0.797 µM.
`CCCCCCCCCCCCCC[C@@H](O)[C@@H](O)[C@H](CC[C@H]1O[C@H](CO)[C@H](O)[C@H](O)[C@H]1O)NC(=O)CCCCCCCCCCCCCCCCCCCCCCCC12CC(F)(C1)C2` [Compound I-7, N-((3S,4S,5R)-4,5-dihydroxy-1-((2R,3R,4R,5R,6R)-3,4,5-trihydroxy-6-(hydroxymethyl)tetrahydro-2H-pyran-2-yl)nonadecan-3-yl)-24-(3-fluorobicyclo[1.1.1]pentan-1-yl)tetracosanamide] showed an EC50 [2] of 1.18 µM.
